For experiment [1], the target named is T1, Serine/threonine-protein kinase ULK2 (Homo sapiens) (UniProt Q8IYT8).
T1 sequence (whole entry): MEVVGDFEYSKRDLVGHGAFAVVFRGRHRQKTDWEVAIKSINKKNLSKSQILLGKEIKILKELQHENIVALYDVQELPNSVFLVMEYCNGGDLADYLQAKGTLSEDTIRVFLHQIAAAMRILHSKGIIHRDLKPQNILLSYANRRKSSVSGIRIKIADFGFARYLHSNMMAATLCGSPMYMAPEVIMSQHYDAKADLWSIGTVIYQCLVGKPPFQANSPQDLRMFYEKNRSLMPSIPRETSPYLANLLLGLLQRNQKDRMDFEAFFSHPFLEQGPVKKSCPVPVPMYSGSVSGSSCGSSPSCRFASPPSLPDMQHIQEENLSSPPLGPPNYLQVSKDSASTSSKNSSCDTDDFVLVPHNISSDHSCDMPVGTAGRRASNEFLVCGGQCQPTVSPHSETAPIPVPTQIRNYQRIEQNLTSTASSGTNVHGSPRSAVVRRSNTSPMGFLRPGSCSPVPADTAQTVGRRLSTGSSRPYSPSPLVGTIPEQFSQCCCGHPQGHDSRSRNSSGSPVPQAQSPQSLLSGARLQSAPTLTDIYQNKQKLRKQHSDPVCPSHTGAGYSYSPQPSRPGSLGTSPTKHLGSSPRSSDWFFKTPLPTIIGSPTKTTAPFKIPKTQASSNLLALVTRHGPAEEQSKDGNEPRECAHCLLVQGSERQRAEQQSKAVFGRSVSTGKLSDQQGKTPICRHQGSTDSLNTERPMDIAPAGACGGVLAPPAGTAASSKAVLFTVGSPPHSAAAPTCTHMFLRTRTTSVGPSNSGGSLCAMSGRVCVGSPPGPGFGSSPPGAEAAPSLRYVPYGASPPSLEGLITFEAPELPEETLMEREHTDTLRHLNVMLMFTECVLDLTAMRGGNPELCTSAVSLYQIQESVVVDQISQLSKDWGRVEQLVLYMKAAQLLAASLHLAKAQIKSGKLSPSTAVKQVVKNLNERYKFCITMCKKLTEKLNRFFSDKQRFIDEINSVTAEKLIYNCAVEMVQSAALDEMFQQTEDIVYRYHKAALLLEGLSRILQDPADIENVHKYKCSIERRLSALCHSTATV
Kind of experiment: Inhibition of ULK2 (unknown origin) assessed as residual activity at 100 nM by KINOMEscan analysis relative to control.

Experiment [2] addresses T2, Bone morphogenetic protein receptor type-2 (Homo sapiens) (UniProt Q13873).
T2 sequence (whole entry): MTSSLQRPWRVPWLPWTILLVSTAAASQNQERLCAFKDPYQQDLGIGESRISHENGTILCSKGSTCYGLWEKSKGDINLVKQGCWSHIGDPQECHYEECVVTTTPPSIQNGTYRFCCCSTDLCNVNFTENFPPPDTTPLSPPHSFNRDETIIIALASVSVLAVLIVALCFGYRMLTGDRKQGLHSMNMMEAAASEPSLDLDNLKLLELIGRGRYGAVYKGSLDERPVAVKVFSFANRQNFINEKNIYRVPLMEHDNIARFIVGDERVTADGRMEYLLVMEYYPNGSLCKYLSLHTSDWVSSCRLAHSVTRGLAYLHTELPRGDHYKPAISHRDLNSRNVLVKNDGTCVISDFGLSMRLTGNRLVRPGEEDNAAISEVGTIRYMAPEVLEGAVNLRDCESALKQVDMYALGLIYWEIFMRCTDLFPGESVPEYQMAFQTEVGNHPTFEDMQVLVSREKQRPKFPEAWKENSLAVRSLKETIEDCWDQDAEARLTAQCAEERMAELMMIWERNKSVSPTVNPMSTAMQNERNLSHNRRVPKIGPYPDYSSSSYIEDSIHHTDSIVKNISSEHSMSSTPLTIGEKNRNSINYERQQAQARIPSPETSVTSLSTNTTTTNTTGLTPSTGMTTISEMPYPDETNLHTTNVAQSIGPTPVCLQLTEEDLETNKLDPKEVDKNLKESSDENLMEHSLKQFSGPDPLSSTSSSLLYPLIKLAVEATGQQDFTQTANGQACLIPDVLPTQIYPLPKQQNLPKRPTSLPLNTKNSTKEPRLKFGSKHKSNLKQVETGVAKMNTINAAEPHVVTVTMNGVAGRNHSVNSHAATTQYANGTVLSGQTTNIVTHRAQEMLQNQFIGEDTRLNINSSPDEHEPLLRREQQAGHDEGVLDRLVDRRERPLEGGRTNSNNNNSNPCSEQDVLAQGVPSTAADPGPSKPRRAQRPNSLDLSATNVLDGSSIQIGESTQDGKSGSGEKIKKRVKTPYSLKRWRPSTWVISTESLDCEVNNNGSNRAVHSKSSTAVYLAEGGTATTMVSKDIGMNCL
Put plainly: Inhibition of BMPR2 (unknown origin) assessed as residual activity at 100 nM by KINOMEscan analysis relative to control.

Experiment [3] addresses Tyrosine-protein kinase Tec (Homo sapiens) (UniProt P42680). Kind of experiment: Inhibition of TEC (unknown origin) assessed as residual activity at 100 nM by KINOMEscan analysis relative to control.
Experiment [4] concerns the target STE20/SPS1-related proline-alanine-rich protein kinase (Homo sapiens) (UniProt Q9UEW8). Kind of experiment: Inhibition of STK39 (unknown origin) assessed as residual activity at 100 nM by KINOMEscan analysis relative to control.
Experiment [5] concerns the target T3, Mitogen-activated protein kinase 13 (Homo sapiens) (UniProt O15264).
T3 sequence (whole entry): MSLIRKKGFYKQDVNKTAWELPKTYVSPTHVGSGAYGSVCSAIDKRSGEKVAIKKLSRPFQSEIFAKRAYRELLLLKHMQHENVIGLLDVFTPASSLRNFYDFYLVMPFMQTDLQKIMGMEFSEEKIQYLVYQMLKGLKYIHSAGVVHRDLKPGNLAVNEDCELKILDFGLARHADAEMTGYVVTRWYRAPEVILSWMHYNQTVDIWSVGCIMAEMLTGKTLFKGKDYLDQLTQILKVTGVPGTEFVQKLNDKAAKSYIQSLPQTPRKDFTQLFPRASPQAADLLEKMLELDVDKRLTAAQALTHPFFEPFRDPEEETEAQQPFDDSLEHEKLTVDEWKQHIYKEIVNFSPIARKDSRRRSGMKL
Kind of experiment: Inhibition of p38-delta (unknown origin) assessed as residual activity at 100 nM by KINOMEscan analysis relative to control.

Experiment [6] concerns the target Macrophage colony-stimulating factor 1 receptor (Homo sapiens) (UniProt P07333). Put plainly: Inhibition of CSF1R (unknown origin) assessed as residual activity at 100 nM by KINOMEscan analysis relative to control.

Tyrosine-protein kinase Tec (Homo sapiens), sequence (P42680 whole entry, looked up): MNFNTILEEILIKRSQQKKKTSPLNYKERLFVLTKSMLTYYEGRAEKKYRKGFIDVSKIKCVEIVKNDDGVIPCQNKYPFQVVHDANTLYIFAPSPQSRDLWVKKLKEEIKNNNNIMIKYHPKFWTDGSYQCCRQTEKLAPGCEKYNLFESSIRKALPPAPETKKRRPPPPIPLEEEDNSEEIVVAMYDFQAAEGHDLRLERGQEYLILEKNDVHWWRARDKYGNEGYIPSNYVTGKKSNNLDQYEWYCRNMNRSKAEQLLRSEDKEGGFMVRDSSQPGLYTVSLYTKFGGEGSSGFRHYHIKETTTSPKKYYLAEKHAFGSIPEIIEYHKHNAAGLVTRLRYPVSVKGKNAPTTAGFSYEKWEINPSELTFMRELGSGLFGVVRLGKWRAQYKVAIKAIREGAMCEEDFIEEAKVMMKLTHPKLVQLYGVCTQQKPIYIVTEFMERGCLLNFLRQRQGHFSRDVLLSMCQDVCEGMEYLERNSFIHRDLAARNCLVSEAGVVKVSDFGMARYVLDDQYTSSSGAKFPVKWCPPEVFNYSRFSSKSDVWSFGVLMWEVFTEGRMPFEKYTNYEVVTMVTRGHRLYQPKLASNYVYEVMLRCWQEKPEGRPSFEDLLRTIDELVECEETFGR
Macrophage colony-stimulating factor 1 receptor (Homo sapiens), sequence (P07333 whole entry): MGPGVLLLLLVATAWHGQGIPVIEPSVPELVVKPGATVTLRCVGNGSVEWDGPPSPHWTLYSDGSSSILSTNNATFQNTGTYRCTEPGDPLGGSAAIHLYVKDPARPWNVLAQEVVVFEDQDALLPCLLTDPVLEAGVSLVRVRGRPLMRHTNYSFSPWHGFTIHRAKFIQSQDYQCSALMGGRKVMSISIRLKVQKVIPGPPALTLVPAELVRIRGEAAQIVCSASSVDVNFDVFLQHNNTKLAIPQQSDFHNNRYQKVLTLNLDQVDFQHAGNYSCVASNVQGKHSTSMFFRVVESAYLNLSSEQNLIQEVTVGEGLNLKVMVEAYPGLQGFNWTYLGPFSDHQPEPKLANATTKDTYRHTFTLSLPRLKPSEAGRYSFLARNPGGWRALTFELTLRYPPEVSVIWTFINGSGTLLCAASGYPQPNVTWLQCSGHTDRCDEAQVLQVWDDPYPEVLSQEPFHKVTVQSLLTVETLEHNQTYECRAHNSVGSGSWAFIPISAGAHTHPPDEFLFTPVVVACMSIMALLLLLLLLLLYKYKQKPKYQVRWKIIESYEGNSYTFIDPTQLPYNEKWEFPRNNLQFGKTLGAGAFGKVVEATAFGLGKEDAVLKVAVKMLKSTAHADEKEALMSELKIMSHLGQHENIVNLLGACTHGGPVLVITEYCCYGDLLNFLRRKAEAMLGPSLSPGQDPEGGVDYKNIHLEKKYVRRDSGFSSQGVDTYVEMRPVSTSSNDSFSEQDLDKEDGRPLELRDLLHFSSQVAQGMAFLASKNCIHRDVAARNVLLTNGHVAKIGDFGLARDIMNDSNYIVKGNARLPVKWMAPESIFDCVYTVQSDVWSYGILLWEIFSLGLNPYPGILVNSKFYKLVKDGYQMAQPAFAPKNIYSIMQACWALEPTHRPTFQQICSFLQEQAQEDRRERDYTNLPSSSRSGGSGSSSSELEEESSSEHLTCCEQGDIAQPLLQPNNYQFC

In the case of `COc1cc2ncnc(N[C@H](C)c3cccc4ccccc34)c2cc1OC`, the Activity in experiment [1] was found to be 100%; in experiment [2], 97%; in experiment [3], 87%; in experiment [4], 93%; in experiment [5] it was 100%; in experiment [6] it was 100%.
